In patent publication US6114371A, “3-(cyclohexanoheteroarylidenyl)-2-indolinone protein tyrosine kinase inhibitors” (Sugen, Inc., priority 1998, dated 2000) one finds IC50 data, which are given here for two compounds.

Each structure is given as a SMILES string. pIC50: −log10 of the molar value.

The target in assay [1] is T1, PDGFr (Homo sapiens, UniProt P09619). As to the kind of experiment: PDGF-R ELISA. The arrangement: cells (U1242, obtained from Joseph Schlessinger, NYU); endogenous in cells; host or cells: U1242. It counts as cell-based. (In an ELISA, binding on a coated surface is turned into a signal by an enzyme label.)
Description: All cell culture media, glutamine, and fetal bovine serum can be purchased from Gibco Life Technologies (Grand Island, N.Y.) unless otherwise specified. […] All cell lines are routinely subcultured twice a week and are negative for mycoplasma as determined by the Mycotect method (Gibco).
For ELISA assays, cells (U1242, obtained from Joseph Schlessinger, NYU) are grown to 80-90% confluency in growth medium (MEM with 10% FBS, NEAA, 1 mM NaPyr and 2 mM GLN) and seeded in 96-well tissue culture plates in 0.5% serum at 25,000 to 30,000 cells per well. After overnight incubation in 0.5% serum-containing medium, cells are changed to serum-free medium and treated with test compound for 2 hr in a 5% CO2, 37° C. incubator. […] Lysates are incubated with shaking for 1 hour at room temperature. The plates are washed with TBST four times and then incubated with polyclonal anti-phosphotyrosine antibody at room temperature for 30 minutes. Excess anti-phosphotyrosine antibody is removed by rinsing the plate with TBST four times. Goat anti-rabbit IgG antibody is added to the ELISA plate for 30 min at room temperature followed by rinsing with TBST four more times. […] Absorbance at 410 nm with a reference wavelength of 630 nm is recorded about 15 to 30 min after ABTS addition.
For assay [2], the target named is T2, EGFr (Homo sapiens, UniProt P00533). As to the kind of experiment: EGF-induced BrdU incorporation assay. In kind it is cell-based. As to conditions: Table 8. For orientation: Uptake of a labelled nucleoside into DNA is a usual measure of proliferation.
In assay [3] the target is Myc-GyrB-FGFR fusion protein. As to the kind of experiment: Assay measuring the kinase activity of the FGF receptor (Myc-GyrB-FGFR fusion protein). As to conditions: Table 5; 7 μM ATP. In kind it is biochemical. As for the experimental part:
The following protocol describes the reagents and procedures used to analyze protein tyrosine kinase activity of the Myc-GyrB-FGFR fusion protein.
5. Add 15 μg COS/FGFR cell lysate Myc-GyrB-FGFR sources per well in HNTG for a final volume of 100 μL per well. Incubate while shaking on a micro-liter plate shaker at room temperature for 2 hours.
9. At this point diluted Compounds/Extracts are added to the ELISA plate. Transfer 10 μL of diluted test and control wells from the polypropylene plate wells to the corresponding ELISA plate wells. Incubate while shaking on a micro-liter plate shaker at room temperature for 20 minutes.
10. Add 10 μL of 70 μM ATP diluted in kinase buffer to positive control and test wells (Final ATP concentration is 7 μM/well.) Add 10 μL of 1×kinase buffer to negative control wells. Incubate while shaking on a micro-liter plate shaker at room temperature for 15 min.
22. Read assay on Dynatech MR7000 ELISA Plate Reader.
(§1) The IC50 values were measured for several of the compounds of the invention.

Assay [4] deals with T3, src protein kinase (Gallus gallus, UniProt P00523).
T3 construct: made in house; host or cells: Schizosaccharomyces pombe (yeast transformed with src, lysate)
As to the kind of experiment: Biochemical src assay - ELISA. As for the experimental part: This assay is used to determine src protein kinase activity measuring phosphorylation of a biotinylated peptide as the readout.
h. […] S. Pombe strain SP200 (h-s leul.32 ura4 ade210) is grown as described and transformations are pRSP expression plasmids are done by the lithium acetate method (Superti-Furga, supra). Cells are grown in the presence of 1 μM thiamine to repress expression from the nmtl promoter or in the absence of thiamine to induce expression.
2. Add 0.08 mL Kinase Reaction Mixture per well (containing 10 μL of 10×Kinase Buffer and 10 μM (final concentration) biotin-[…] per well diluted in water.
(§2) 3. Add 10 μL of compound diluted in water containing 10% DMSO and pre-incubate for 15 minutes at room temperature.
4. Start kinase reaction by adding 10 μL/well of 0.05 mM ATP in water (5 μM ATP final).
as §1

For assay [5], the target named is T4, lck protein kinase (Homo sapiens, UniProt P06239).
T4 construct: made in house; host or cells: Schizosaccharomyces pombe strain SP200 (lysate)
As to the kind of experiment: Biochemical lck assay - ELISA. As for the experimental part: This assay is used to determine lck protein kinase activities measuring phosphorylation of GST-.zeta. as the readout.
b. Yeast transformed with lck. […] S. Pombe strain SP200 (h-s leul.32 ura4 ade210) is grown as described and transformations with pRSP expression plasmids are done by the lithium acetate method (Superti-Furga, supra). Cells are grown in the presence of 1 μM thiamine to induce expression.
2. Add 0.08 mL Kinase Reaction Mixture per well (containing 10 μl of 10×Kinase Buffer and 2 μg GST-.zeta. per well diluted with water).
as §2
4. Start kinase reaction by adding 10 μL/well of 0.1 mM ATP in water (10 μM ATP final).
The IC50 values were measured for one of the compounds of the invention.

For assay [6], the system named is HUV-EC-C cells. As to the kind of experiment: HUV-EC-C assay, aFGF (3H-thymidine incorporation). In kind it is cell-based, human. As for the experimental part:
(§3) The following protocol may also be used to measure a compound's activity against PDGF-R, FGF-R, VEGF, aFGF or Flk-1/KDR, all of which are naturally expressed by HUV-EC cells.
(§4) 1. […] After cells have detached from the flask, add an equal volume of assay medium and transfer to a 50 mL sterile centrifuge tube (Fisher Scientific; catalogue no. 05-539-6).
(§5) 1. Make up two-fold drug titrations in separate 96-well plates, generally 50 μM on down to 0 μM. Use the same assay medium as mentioned in day 0, step 2 above. Titrations are made by adding 90 μl/well of drug at 200 μM (4×the final well concentration) to the top well of a particular plate column. Since the stock drug concentration is usually 20 mM in DMSO, the 200 μM drug concentration contains 2% DMSO.
Therefore, diluent made up to 2% DMSO in assay medium (F12K+0.5% fetal bovine serum) is used as diluent for the drug titrations in order to dilute the drug but keep the DMSO concentration constant. Add this diluent to the remaining wells in the column at 60 μl/well. Take 60 μl from the 120 μl of 200 μM drug dilution in the top well of the column and mix with the 60 μl in the second well of the column. Take 60 μl from this well and mix with the 60 μl in the third well of the column, and so on until two-fold titrations are completed. When the next-to-the-last well is mixed, take 60 μl of the 120 μl in this well and discard it. Leave the last well with 60 μl of DMSO/media diluent as a non-drug-containing control. Make 9 columns of titrated drug, enough for triplicate wells each for 1) VEGF (obtained from Pepro Tech Inc., catalogue no. 100-200, 2) endothelial cell growth factor (ECGF) (also known as acidic fibroblast growth factor, or aFGF) (obtained from Boehringer Mannheim Biochemica, catalogue no. 1439 600); or, 3) human PDGF B/B (1276-956, Boehringer Mannheim, Germany) and assay media control. ECGF comes as a preparation with sodium heparin.
2. Transfer 50 μl/well of the drug dilutions to the 96-well assay plates containing the 0.8-1.0×10^4 cells/100 μl/well of the HUV-EC-C cells from day 0 and incubate ~2 h at 37° C., 5% CO2.
3. In triplicate, add 50 μl/well of […] VEGF, 20 ng/mL ECGF, or media control to each drug condition. As with the drugs, the growth factor concentrations are 4×the desired final concentration. Use the assay media from day 0 step 2 to make the concentrations of growth factors. Incubate approximately 24 hours at 37° C., 5% CO2. Each well will have 50 μl drug dilution, 50 μl growth factor or media, and 100 ul cells, =200 ul/well total. Thus the 4×concentrations of drugs and growth factors become 1× once everything has been added to the wells.
1. Add ^3 H-thymidine (Amersham; catalogue no. TRK-686) at 1 μCi/well (10 μl/well of 100 μCi/mL solution made up in RPMI media+10% heat-inactivated fetal bovine serum) and incubate ~24 h at 37° C., 5% CO2. RPMI is obtained from Gibco BRL, catalogue no. 11875-051.
(§6) 1. Thaw plates and harvest with a 96-well plate harvester (Tomtec Harvester 96®) onto filter mats (Wallac; catalogue no. 1205-401); read counts on a Wallac Betaplate™ liquid scintillation counter.
as §1

For assay [7], the target named is T1, PDGFr. As to the kind of experiment: PDGF-induced BrdU incorporation assay. It counts as cell-based. Also noted: expressed in transfected cells; host or cells: 3T3 cell line. Conditions: Table 8; BrdU incorporation, 3.8 nM PDGF; read-out: PDGFr IC50.
Description: (8) 3T3 cell line genetically engineered to express human PDGF-R.
Cells were seeded at 8000 cells/well in DMEM, 10% CS, 2 mM Gln in a 96 well plate. Cells were incubated overnight at 37° C. in 5% CO2.
The negative control wells received serum free DMEM with 0.1% BSA only; the positive control cells received the ligand (PDGF) but no test compound.
The absorbance of the samples were measured at 410 nm (in "dual wavelength" mode with a filter reading at 490 nm, as a reference wavelength) on a Dynatech ELISA plate reader.
The test system of assay [8] is FGFr. As to the kind of experiment: FGF-induced BrdU incorporation assay. It counts as cell-based. Conditions: Table 8.
Assay [9] relates to HUV-EC-C cells. As to the kind of experiment: HUV-EC-C assay, VEGF (3H-thymidine incorporation). It counts as cell-based, human. Conditions: Table 2, VEGF-stimulated HUV-EC-C, read-out: HUV-EC-C ATCC VEGF IC50. The method, then: as §3, §4, §5
Therefore, diluent made up to 2% DMSO in assay medium (F12K+0.5% fetal bovine serum) is used as diluent for the drug titrations in order to dilute the drug but keep the DMSO concentration constant. Add this diluent to the remaining wells in the column at 60 μl/well. […]
as §6, §1

The target of assay [10] is FAK (Homo sapiens, UniProt Q05397). As to the kind of experiment: FAK assay. Conditions: Table 2. In kind it is biochemical.
For assay [11], the target named is T5, FLK-1 receptor (Mus musculus, UniProt P35918).
T5 construct: expressed in transfected cells; host or cells: NIH3T3 C7#3 cells
As to the kind of experiment: FLK-1 ELISA (kinase activity of the FLK-1 receptor in engineered cells). It counts as cell-based. Conditions: Table 2; read-out: FLK-1R IC50.

In assay [12] the target is T2, EGFr. As to the kind of experiment: EGF receptor ELISA. It counts as cell-based. As to conditions: Table 2; read-out: EGFR IC50. Also noted: expressed in transfected cells; host or cells: NIH 3T3/C7. The method, then:
EGF Receptor kinase activity in cells genetically engineered to express human EGF-R can be measured as described below:
1. Check seeded cells for contamination using an inverted microscope. Dilute drug stock (10 mg/mL in DMSO) 1:10 in DMEM medium, then transfer 5 μL to a test well for a final drug dilution of 1:200 and a final DMSO concentration of 1%. Control wells receive DMSO alone. Incubate in 5% CO2 at 37° C. for one hour.
5. After two hours incubation with drug, add prepared EGF ligand to cells, 10 μL per well, to yield a final concentration of 25 nM. Control wells receive DMEM alone. Incubate, shaking, at room temperature, for 5 minutes.
12. The maximal phosphotyrosine signal is determined by subtracting the value of the negative controls from the positive controls. The percent inhibition of phosphotyrosine content for extract-containing wells is then calculated, after subtraction of the negative controls.

T1 sequence (P09619 33-1106): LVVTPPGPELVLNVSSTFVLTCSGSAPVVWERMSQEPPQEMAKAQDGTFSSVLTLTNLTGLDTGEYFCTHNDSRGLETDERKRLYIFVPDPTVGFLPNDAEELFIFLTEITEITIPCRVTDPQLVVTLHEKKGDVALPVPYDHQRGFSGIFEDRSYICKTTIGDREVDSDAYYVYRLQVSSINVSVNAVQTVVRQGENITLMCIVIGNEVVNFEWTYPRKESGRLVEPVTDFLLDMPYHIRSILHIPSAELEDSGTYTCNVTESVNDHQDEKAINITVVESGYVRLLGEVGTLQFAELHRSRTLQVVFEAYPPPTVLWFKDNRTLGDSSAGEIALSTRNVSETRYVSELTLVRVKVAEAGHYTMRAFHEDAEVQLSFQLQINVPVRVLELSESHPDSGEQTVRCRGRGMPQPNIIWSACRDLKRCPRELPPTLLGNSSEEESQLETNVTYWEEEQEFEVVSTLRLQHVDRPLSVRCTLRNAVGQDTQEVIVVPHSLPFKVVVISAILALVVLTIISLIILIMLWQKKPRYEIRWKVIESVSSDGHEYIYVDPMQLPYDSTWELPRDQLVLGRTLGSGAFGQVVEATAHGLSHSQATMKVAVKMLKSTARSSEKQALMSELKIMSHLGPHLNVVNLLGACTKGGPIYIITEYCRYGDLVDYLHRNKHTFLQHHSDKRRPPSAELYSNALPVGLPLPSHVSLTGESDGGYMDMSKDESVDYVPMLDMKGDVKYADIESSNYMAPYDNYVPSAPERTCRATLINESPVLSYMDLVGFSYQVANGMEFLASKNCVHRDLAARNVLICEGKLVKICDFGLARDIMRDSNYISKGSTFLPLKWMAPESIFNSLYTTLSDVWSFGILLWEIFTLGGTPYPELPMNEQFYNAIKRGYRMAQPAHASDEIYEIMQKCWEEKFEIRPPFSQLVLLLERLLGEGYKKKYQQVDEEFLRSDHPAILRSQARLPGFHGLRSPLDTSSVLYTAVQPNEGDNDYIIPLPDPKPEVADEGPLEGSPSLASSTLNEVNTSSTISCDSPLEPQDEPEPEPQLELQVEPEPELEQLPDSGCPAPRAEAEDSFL
T2 sequence (P00533 25-1210): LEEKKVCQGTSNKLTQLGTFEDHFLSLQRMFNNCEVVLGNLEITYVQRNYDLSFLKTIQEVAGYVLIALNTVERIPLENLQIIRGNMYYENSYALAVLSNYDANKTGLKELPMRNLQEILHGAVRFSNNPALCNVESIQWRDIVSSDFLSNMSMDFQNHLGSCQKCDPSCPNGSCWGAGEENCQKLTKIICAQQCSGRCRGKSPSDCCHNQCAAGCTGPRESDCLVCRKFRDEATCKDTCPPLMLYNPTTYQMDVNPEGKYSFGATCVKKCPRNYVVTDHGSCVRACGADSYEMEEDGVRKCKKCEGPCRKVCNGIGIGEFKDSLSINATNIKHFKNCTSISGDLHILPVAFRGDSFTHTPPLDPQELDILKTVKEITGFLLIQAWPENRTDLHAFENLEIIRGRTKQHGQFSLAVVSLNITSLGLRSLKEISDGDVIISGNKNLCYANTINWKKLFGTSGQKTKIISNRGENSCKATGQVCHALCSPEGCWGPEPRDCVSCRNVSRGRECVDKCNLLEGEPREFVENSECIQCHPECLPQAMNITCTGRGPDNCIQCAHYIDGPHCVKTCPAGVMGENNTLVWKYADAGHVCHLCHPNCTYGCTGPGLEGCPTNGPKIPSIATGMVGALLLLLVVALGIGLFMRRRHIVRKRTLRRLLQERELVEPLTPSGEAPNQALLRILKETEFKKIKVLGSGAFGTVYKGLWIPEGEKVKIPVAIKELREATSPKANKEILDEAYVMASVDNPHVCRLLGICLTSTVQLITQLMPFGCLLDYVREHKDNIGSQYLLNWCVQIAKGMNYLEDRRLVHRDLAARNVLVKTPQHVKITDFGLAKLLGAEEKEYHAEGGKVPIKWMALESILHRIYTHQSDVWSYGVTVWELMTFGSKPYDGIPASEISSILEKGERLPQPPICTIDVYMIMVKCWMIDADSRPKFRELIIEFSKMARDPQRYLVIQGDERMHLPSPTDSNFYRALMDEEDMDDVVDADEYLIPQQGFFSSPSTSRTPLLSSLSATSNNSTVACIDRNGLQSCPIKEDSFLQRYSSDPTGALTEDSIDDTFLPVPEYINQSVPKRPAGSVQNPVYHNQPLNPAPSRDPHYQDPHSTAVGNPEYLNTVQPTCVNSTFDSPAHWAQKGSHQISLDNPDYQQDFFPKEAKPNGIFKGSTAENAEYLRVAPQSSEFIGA
T4 sequence (P06239 whole entry): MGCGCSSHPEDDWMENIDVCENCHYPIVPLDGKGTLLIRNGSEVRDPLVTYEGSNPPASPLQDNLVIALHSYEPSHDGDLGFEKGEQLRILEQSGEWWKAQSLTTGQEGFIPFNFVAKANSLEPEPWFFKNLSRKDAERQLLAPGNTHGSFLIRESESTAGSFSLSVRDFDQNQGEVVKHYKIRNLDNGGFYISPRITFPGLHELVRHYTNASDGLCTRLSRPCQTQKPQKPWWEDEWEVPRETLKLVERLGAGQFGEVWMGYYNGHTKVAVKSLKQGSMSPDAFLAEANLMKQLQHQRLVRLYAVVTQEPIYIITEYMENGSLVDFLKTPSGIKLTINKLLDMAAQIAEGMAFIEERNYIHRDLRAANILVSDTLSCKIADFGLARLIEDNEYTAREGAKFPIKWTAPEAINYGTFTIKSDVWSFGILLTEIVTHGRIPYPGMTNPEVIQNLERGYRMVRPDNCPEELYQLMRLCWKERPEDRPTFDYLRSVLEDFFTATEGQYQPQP
FAK, sequence (Q05397 whole entry, species assumed): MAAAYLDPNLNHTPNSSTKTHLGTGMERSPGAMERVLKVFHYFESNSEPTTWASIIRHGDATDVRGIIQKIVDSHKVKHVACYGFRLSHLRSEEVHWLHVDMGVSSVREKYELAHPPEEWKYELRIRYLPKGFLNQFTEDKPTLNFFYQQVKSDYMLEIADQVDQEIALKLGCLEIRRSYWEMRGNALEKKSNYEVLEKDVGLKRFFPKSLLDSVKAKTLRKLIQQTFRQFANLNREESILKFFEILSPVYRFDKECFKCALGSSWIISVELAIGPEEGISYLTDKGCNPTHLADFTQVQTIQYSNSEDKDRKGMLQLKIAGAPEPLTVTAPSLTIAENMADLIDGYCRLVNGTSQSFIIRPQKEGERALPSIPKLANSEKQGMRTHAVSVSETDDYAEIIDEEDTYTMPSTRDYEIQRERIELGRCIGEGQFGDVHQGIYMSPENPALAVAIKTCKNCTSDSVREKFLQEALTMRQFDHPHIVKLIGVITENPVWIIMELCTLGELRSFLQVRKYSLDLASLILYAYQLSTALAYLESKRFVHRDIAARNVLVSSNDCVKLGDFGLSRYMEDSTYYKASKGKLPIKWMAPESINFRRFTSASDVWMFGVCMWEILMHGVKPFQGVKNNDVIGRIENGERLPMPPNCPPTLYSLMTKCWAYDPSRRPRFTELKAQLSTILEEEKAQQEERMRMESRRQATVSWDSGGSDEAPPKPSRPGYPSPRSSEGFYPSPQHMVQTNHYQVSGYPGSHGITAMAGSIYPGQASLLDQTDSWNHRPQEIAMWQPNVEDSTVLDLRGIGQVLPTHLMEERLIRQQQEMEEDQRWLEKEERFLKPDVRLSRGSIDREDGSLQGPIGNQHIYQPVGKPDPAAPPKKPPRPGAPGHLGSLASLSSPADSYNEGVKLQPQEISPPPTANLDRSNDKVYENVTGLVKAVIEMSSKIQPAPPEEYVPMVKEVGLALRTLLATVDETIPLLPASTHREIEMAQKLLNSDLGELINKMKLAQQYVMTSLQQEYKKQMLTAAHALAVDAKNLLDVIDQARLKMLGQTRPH

`CC(=O)c1ccc2c(c1)C(=Cc1cc3c([nH]1)CCCC3)C(=O)N2` [5-acetyl-3-(4,5,6,7-tetrahydro-1H-indol-2-ylmethylene)-1,3-dihydro-indol-2-one]: the pIC50 (as a rule, −log10 of the IC50, conventionally taken in molar units) in assay [1] (Table 4, ligand-stimulated U1242 cells, read-out: PDGF-R IC50) is under 4.00; in [2], 4.44; in assay [3], under 4.70; in assay [4] (Table 6, 5 μM ATP, biotinylated peptide substrate) it was 4.75; in [5] (Table 7, 10 μM ATP, GST-zeta substrate), under 4.00; in [6] (Homo sapiens, Table 9, aFGF (ECGF)-stimulated HUV-EC-C, 3H-thymidine, read-out: aFGF IC50) it was 4.54. The negative logarithm of the IC50 (pIC50) in [7] is under 7.15; in assay [8], under 4.30.

Regarding `NS(=O)(=O)c1ccc2c(c1)C(=Cc1cc3c([nH]1)CCCC3)C(=O)N2`, the pIC50 is 6.00 in assay [1] (read-out: PDGFR IC50, Table 2); 6.19 in [9] (Homo sapiens); 5.97 in assay [9]; under 5.00 in assay [10]; 6.10 in assay [4] (Table 2); 6.15 in assay [5] (Table 2). In addition, the negative logarithm of the IC50 (pIC50) in assay [6] (Homo sapiens, Table 2, aFGF-stimulated HUV-EC-C, read-out: HUV-EC-C ATCC aFGF IC50) was 5.62; in [6] (Table 2, aFGF-stimulated HUV-EC-C, read-out: HUV-EC-C ATCC aFGF IC50), 5.48; in assay [11], under 4.00; in assay [12], under 4.00.
